According to patent US20060293187A1, “Herbicidal mixtures based on 3-phenyluracils” (BASF Aktiengesellschaft, priority 2003, published 2006):

Columns and labels:
Type in all cases: in vivo
Settings in all cases: 21 days, 0 = no damage, 100 = complete destruction
Alopecurus myosuroides = test: Greenhouse experiment, herbicidal activity, post-emergence method
Excerpt: (§1) For the post-emergence treatment, the test plants were first grown to a height of 3 to 20 cm, depending on the plant habit, and only then treated. Here, the herbicidal compositions were suspended or emulsified in water as distribution medium and sprayed using finely distributing nozzles.
(§2) The respective components I and B and/or C were formulated as 10% by weight strength emulsion concentrate and introduced to the spray liquor with the amount of solvent system used for applying the active compound. In the examples, the solvent used was water.
(§3) The test period extended over 21 days. During this time, the plants were tended, and their response to the treatments with active compound was evaluated.
(§4) The evaluation for the damage caused by the chemical compositions was carried out using a scale from 0 to 100%, compared to the untreated control plants. Here, 0 means no damage and 100 means complete destruction of the plants.
(§5) In the examples below, the value E which is to be expected if the activity of the individual compounds is just additive was calculated using the method of S. R. Colby (1967) “Calculating synergistic and antagonistic responses of herbicide combinations”, Weeds 15, p. 22 ff. E=X+Y−(X·Y/100) where
(§6) X=effect in percent using active compound I at an application rate a;
(§7) Y=effect in percent using active compound B at an application rate b;
(§8) E=expected effect (in %) of I+B at application rates a+b.
(§9) If the value […] in this manner is higher than the value E calculated according to Colby, a synergistic effect is present.

Amaranthus retroflexus = test: Greenhouse experiment, herbicidal activity, pre-emergence method
Protocol: as §2, §3, §4, §5, §6, §7, §8, §9

Echinocloa crus-galli = test: Greenhouse experiment, herbicidal activity, post-emergence method
Excerpt: as §1, §2, §3, §4, §5, §6, §7, §8, §9

[1] = application rate 1.95 g/ha of each active compound applied (mixture 1.95 + 1.95 g/ha)
[2] = application rate 0.98 g/ha of each active compound applied (mixture 0.98 + 0.98 g/ha)

4-Hydroxy-3-{[2-methoxyethoxy)methyl-6-(trifluormethyl)-3-pyridinyl]carbonyl}bicyclo[3.2.1]oct-3-en-2-one [B.2]
Herbicidal activity against Alopecurus myosuroides, found (Alopecurus myosuroides; [1]): 0%
Herbicidal activity against Alopecurus myosuroides, found (Alopecurus myosuroides; application rate 3.91 g/ha of each active compound applied (mixture 3.91 + 3.91 g/ha)): 0%

Cc1nc(C(F)(F)F)ccc1C(=O)C1=C(O)C2CCC(C2)C1=O (stereo not drawn) [B.1, 4-Hydroxy-3-{[2-methyl-6-(triflurmethyl)-3-pyridinyl]carbonyl}ci-cyclo[3.2.1]oct-3-en-2-one]
Herbicidal activity against Amaranthus retroflexus, found (Amaranthus retroflexus; [2]): 0%
Herbicidal activity against Amaranthus retroflexus, found (Amaranthus retroflexus; [1]): 20%
Herbicidal activity against Echinocloa crus-galli, found (Echinocloa crus-galli; [2]): 30%
Herbicidal activity against Echinocloa crus-galli, found (Echinocloa crus-galli; [1]): 60%
